Measurements as given in PubChem BioAssay (NCI).
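Test compounds were applied to cells in 96-well plates for 48 hours at 5 doses. The concentration for 50% growth inhibition is given as GI50. TGI is the concentration that stops growth completely.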

What was measured:
Assay in all cases: NCI anticancer screen, dose series, 48 h
[1] = system: CCRF-CEM leukemia
[2] = system: HCT-15 colon
[3] = system: OVCAR-3 ovarian
[4] = system: ACHN renal
[5] = system: MDA-N
[6] = system: A549 NSCLC
[7] = system: SF-268 CNS
[8] = system: HOP-62 NSCLC
[9] = system: COLO 205 colon
[10] = system: SNB-19 CNS
[11] = system: MALME-3M melanoma
[12] = system: UO-31 renal
[13] = system: K-562 leukemia
[14] = system: T-47D breast
[15] = system: OVCAR-5 ovarian
[16] = system: NCI-H460 lung
[17] = system: NCI/ADR-RES ovarian
[18] = system: 786-0 renal
[19] = system: UACC-257 melanoma
[20] = system: NCI-H522 lung
[21] = system: SK-OV-3 ovarian
[22] = system: HL-60(TB) leukemia
[23] = system: IGROV1 ovarian
[24] = system: HT29 colon
[25] = system: SNB-75 CNS
[26] = system: HCC-2998 colon
[27] = system: NCI-H226 lung
[28] = system: HCT-116 colon
[29] = system: SK-MEL-28 melanoma
[30] = system: SK-MEL-5 melanoma
[31] = system: A498 renal
[32] = system: CAKI-1 renal
[33] = system: DU-145 prostate
[34] = system: LOX IMVI melanoma
[35] = system: RPMI-8226 leukemia
[36] = system: U251 CNS
[37] = system: HS 578T breast
[38] = system: UACC-62 melanoma
[39] = system: PC-3 prostate
[40] = system: MDA-MB-435
[41] = system: SR leukemia
[42] = system: MCF7 breast
[43] = system: SF-295 CNS
[44] = system: M14 melanoma
[45] = system: BT-549 breast
[46] = system: SF-539 CNS
[47] = system: MDA-MB-231 breast
[48] = system: NCI-H23 lung
[49] = system: SN12C renal
[50] = system: KM12 colon
[51] = system: EKVX NSCLC
[52] = system: SW-620 colon
[53] = system: MOLT-4 leukemia
[54] = system: SK-MEL-2 melanoma
[55] = system: TK-10 renal
[56] = system: OVCAR-8 ovarian
[57] = system: OVCAR-4 ovarian
[58] = system: HOP-92 NSCLC

With `COc1ccc(OC2OC(COC(c3ccccc3)(c3ccc(OC)cc3)c3ccc(OC)cc3)C(O)C(O)C2O)cc1` (stereo not drawn) the TGI [1] was 5.39 µM, the TGI [2] was 46.4 µM and the TGI [3] was 14.7 µM. The TGI [4] was 14.3 µM, the TGI [5] was 17.2 µM and the TGI [6] was 11.8 µM. For the same compound, the TGI [7] was 11 µM, the TGI [8] was 24.5 µM and the TGI [9] was 9.85 µM. It also gave a TGI [10] of 26.7 µM, a TGI [11] of 21.2 µM and a TGI [12] of 4.79 µM. The TGI [13] was 10.2 µM, the TGI [14] was 21.4 µM and the TGI [15] was 20.7 µM. For the same compound, the TGI [16] was 9.21 µM, the TGI [17] was 29.2 µM and the TGI [18] was 5.87 µM. It also gave a TGI [19] of 20.1 µM, a TGI [20] of 11.7 µM and a TGI [21] of 18.8 µM. For the same compound, the TGI [22] was 7.59 µM, the TGI [23] was 20.2 µM and the TGI [24] was 5.96 µM. For the same compound, the TGI [25] was 14 µM, the TGI [26] was 16.4 µM and the TGI [27] was 28.3 µM. The TGI [28] was 10.7 µM, the TGI [29] was 10.1 µM and the TGI [30] was 16.1 µM. It also gave a TGI [31] of 25.3 µM, a TGI [32] of 16.2 µM and a TGI [33] of 35.7 µM. The TGI [34] was 3.95 µM, the TGI [35] was > 100 µM and the TGI [36] was 13.3 µM. For the same compound, the TGI [37] was 19.1 µM, the TGI [38] was 14.1 µM and the TGI [39] was 9.59 µM. For the same compound, the TGI [40] was 13 µM, the TGI [41] was > 100 µM and the TGI [42] was 14.7 µM. The TGI [43] was 15 µM, the TGI [44] was 7.05 µM and the TGI [45] was 27 µM. It also gave a TGI [46] of 17 µM, a TGI [47] of 18.1 µM and a TGI [48] of 15.3 µM. The TGI [49] was 6.59 µM, the TGI [50] was 14.7 µM and the TGI [51] was 17.3 µM. The TGI [52] was 14.3 µM, the TGI [53] was 4.55 µM and the TGI [54] was 15 µM.

For `CC1(C)OC(CP(c2ccccc2)c2ccccc2)C(CP(c2ccccc2)c2ccccc2)O1` (stereo not drawn), the TGI [1] was 45.5 µM, the TGI [2] was > 100 µM and the TGI [3] was > 100 µM. For the same compound, the GI50 [4] was 2.98 µM, the TGI [4] was > 100 µM and the TGI [5] was > 28.1 µM. The TGI [6] was > 100 µM, the TGI [7] was > 100 µM and the GI50 [8] was 0.56 µM. The TGI [8] was > 100 µM, the TGI [9] was 2.75 µM and the TGI [10] was > 100 µM. For the same compound, the TGI [55] was > 100 µM, the TGI [11] was 41.1 µM and the GI50 [12] was 2.78 µM. For the same compound, the TGI [12] was > 100 µM, the TGI [13] was > 100 µM and the GI50 [14] was 0.173 µM. For the same compound, the TGI [14] was 0.947 µM, the TGI [15] was 7.73 µM and the TGI [16] was > 100 µM. For the same compound, the TGI [17] was > 100 µM, the TGI [18] was > 100 µM and the TGI [19] was > 100 µM. For the same compound, the TGI [20] was > 22.7 µM, the TGI [21] was > 100 µM and the TGI [22] was 1.84 µM. The TGI [23] was > 100 µM, the TGI [24] was > 100 µM and the GI50 [25] was 0.865 µM. The TGI [25] was 5.33 µM, the TGI [26] was > 100 µM and the TGI [27] was > 100 µM. For the same compound, the TGI [28] was > 100 µM, the TGI [56] was > 100 µM and the TGI [57] was > 87.3 µM. For the same compound, the TGI [29] was > 100 µM, the TGI [30] was > 26.4 µM and the TGI [31] was > 100 µM. The TGI [32] was > 100 µM, the TGI [33] was > 55.5 µM and the TGI [34] was > 100 µM. The GI50 [35] was 2.75 µM, the TGI [35] was 14.4 µM and the TGI [36] was > 100 µM. For the same compound, the TGI [37] was > 100 µM, the TGI [38] was > 100 µM and the TGI [39] was > 100 µM. For the same compound, the TGI [40] was > 100 µM, the TGI [41] was > 100 µM and the TGI [42] was > 100 µM. For the same compound, the TGI [58] was > 27.7 µM, the TGI [43] was > 100 µM and the TGI [44] was > 100 µM. For the same compound, the TGI [45] was > 100 µM, the TGI [46] was > 100 µM and the TGI [47] was > 100 µM. For the same compound, the TGI [48] was > 22.5 µM, the TGI [49] was > 100 µM and the TGI [50] was > 38.1 µM. The TGI [51] was > 100 µM, the TGI [52] was > 100 µM and the TGI [53] was > 100 µM. It also gave a TGI [54] of 10.7 µM.
